Assays:
[1] = cited from earlier work
[2] = test system: pregnant women with major depressive disorder; assay: Depression level on the 17-item Hamilton Rating Scale for Depression; format: in vivo, human; conditions: for Mean HRS-D score: fluoxetine 10 to 80 mg daily
[3] = among the 16 subjects with 2 or more repeated depression scores

CNCCC(Oc1ccc(C(F)(F)F)cc1)c1ccccc1 (stereo not drawn) [FLX, fluoxetine]
Expected half-life [1]: 48 to 96 h
Time to reach steady-state concentration [1]: ≤ 23 days
Mean HRS-D score ([2]; 12 weeks postpartum): 7.6 ± 6.5
Mean HRS-D score ([2]; 20 weeks of gestation): 7.3 ± 3.3
Mean HRS-D score ([2]; 30 weeks of gestation): 8.7 ± 5.6
Mean HRS-D score ([2]; 36 weeks of gestation): 7.1 ± 3.2
Subjects with mild to moderate depression levels (HRS-D 12–22) [2, 3]: 3 subjects
Subjects with remitted depression (HRS-D ≤8) [2, 3]: 13 subjects
Mean HRS-D score ([2]; during delivery): 8.3 ± 5.9

Source: article PMC3109731 (Journal of clinical psychopharmacology, 2010)
